In PMC10424673 (Journal of Medicinal Chemistry, 2023):
pEC50: −log10 of the molar value. Each block holds one molecule with its values, some of them ahead of it. Where a SMILES comes first, the peptide text is derived from it. [ ]: non-standard residue; d: D form. The star is where a group is joined. NHNH2 = NN*

Experiments:
GLP-2R [1] = molecular target: T1, GLP-2R (Homo sapiens, UniProt O95838); set-up: method as in 2 sources, one per row (each row's own in cited_ref): ref 28 (Gadgaard et al.) ||| ref 28 = [28]; PMID 36780786; doi:10.1016/j.biopha.2023.114383; Gadgaard S.; Windeløv J. A.; Schiellerup S. P.; Holst J. J.; Hartmann B.; Rosenkilde M. M. Long-Acting Agonists of Human and Rodent Glp-2 Receptors for Studies of the Physiology and Pharmacologic; settings: cited from earlier work
T1 construct: host or cells: CHO-K1 PathHunter reporter cells
T1 sequence (P32121 whole entry partner, one chain of several): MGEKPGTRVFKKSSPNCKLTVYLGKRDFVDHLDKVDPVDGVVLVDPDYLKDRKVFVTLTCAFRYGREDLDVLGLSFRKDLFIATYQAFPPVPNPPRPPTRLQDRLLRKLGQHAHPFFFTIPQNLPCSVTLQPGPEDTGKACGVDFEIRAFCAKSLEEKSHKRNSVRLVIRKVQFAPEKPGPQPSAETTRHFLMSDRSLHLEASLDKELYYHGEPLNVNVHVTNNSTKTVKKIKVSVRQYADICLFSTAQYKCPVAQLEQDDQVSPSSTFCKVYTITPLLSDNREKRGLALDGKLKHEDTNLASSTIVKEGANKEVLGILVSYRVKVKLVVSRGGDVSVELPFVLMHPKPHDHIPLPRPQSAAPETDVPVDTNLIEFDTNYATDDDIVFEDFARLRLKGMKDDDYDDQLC

GLP-2R [2] = molecular target: T1, GLP-2R; set-up: method as in PMID 36780786; settings: cited from earlier work
hGLP-2R = molecular target: T2, hGLP-2R (Homo sapiens, UniProt O95838); experiment: HTRF cAMP assay in GLP-2R-expressing HEK293 cells; assay type: cell-based
T2 construct: expressed in transfected cells
T2 sequence (O95838 1-553): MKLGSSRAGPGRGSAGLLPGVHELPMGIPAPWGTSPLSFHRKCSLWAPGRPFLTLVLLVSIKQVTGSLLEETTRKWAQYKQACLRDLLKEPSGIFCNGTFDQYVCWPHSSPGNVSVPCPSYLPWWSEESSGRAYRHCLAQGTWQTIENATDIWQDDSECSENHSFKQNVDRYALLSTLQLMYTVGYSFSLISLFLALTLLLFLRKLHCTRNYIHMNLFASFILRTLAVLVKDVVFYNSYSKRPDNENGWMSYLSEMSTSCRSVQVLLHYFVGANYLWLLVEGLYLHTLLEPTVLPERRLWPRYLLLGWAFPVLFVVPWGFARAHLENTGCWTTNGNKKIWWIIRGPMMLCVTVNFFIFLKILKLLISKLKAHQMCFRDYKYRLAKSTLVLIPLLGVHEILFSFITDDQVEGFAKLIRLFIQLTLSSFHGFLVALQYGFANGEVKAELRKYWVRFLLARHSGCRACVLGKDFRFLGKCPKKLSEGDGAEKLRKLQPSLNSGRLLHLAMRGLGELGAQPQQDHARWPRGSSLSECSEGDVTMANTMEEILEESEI

[3] = system: GFP under CREB in HEK293 cells stably expressing hGLP-2R; experiment: Western blot of GFP expression under control of CREB in HEK293 cells stably expressing hGLP-2R; assay type: cell-based, human; settings: 10 μM peptide, after 36 hours of incubation, mean ± sd, n = 3
Description: We then investigated the downstream effects of stimulating GLP-2R with the D-GLP-2 analogues to study the D-peptide designs’ effects on GLP-2R. We wanted to determine whether activating GLP-2R with D-GLP-2 analogues would promote GFP expression in HEK293 cells containing a GFP gene under the control of cAMP response element binding protein (CREB) and AKT phosphorylation. We also checked the beta-actin expression in all the treatments as loading controls. Of relevance, all peptides induced a similar GFP expression under the CREB, reaching saturation between 24 and 48 h of incubation (Figures 5E,F, S1A, Table S3). We also found a concentration-dependent increase in GFP expression in response to all the peptides’ stimulation (Figure S1B).
The cells were lysed with a lysis buffer 50 mM Tris-HCl pH 7.4, 1% Nonidet P-40, 150 mM NaCl, 1 mM ethylenediaminetetraacetic acid, 10 mM Na3VO4, 10 mM sodium pyrophosphate, and 25 mM NaF, 1× protease inhibitor mixture (Sigma) for 30 min at 4 °C. […] The transferred samples were immunoblotted with primary antibodies, followed by incubation with horseradish peroxidase-conjugated secondary antibodies (Santa Cruz Biotechnology) and detected using enhanced chemiluminescence (GE Healthcare).

DPP-IV = DPP-IV (Homo sapiens, UniProt P27487); settings: 20 μM peptide, DPP-IV 50 μg/mL, 100 mM Tris pH 8.0, 2.5 h, SDS-PAGE densitometry and mass spectrometry
DPP-IV, sequence (P27487 whole entry, species assumed): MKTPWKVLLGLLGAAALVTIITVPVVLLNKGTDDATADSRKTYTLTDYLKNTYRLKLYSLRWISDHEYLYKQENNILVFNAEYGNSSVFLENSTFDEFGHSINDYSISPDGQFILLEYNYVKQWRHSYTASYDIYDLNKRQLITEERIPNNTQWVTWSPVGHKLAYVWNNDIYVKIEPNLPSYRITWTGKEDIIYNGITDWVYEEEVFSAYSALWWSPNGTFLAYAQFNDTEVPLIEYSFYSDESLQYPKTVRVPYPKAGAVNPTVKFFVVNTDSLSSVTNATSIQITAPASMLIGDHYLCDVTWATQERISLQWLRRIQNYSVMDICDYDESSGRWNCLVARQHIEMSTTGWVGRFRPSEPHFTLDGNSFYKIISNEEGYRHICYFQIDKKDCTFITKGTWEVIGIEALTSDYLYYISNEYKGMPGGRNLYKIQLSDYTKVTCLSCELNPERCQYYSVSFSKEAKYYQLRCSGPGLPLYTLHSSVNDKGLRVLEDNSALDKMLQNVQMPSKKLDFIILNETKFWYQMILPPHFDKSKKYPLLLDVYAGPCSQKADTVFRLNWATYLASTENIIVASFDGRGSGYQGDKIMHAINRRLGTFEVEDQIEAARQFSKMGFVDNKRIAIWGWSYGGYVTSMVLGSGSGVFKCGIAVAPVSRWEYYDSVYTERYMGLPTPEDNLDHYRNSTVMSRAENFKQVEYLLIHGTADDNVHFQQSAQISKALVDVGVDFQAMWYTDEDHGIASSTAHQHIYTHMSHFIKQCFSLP

proteinase K = proteinase K (Parengyodontium album, UniProt P06873); settings: 20 μM peptide, ProtK 100 μg/mL, 10 mM Tris-base, 10 mM NaCl, pH 7.4, 5 μM CaCl2, 37 °C, SDS-PAGE Coomassie densitometry normalised to T0, repeated three times
proteinase K, sequence (P06873 106-384): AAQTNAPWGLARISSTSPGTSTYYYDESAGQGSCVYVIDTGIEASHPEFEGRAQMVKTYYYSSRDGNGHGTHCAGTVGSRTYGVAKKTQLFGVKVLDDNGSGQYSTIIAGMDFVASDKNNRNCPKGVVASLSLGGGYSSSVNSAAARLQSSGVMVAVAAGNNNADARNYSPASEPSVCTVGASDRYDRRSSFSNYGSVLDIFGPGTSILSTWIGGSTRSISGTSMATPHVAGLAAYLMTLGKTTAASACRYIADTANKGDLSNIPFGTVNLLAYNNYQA

Molecule: GLP-2_3–33: the product of DPP-IV inactivation of GLP-2_1–33 (DGSFSDEMNTILDNLAARDFINWLIQTKITD; Glucagon-like peptide 2; UniProt P01275 148-178, looked up, fragment)
mode of action at GLP-2R (GLP-2R [1]): competitive antagonist of GLP-2_1–33 | efficacy at GLP-2R (GLP-2R [1]; ref 28 (Gadgaard et al.)): 11% | β-arrestin 1 and 2 recruitment (GLP-2R [2]): could not recruit β-arrestin 1 and 2

Molecule: CC[C@@H](C)[C@@H](NC(C)=O)C(=O)N[C@H](CCCCN)C(=O)N[C@H](C)C(=O)N[C@H](CCC(N)=O)C(=O)N[C@H](Cc1c[nH]c2ccccc12)C(=O)N[C@H](CC(C)C)C(=O)N[C@H](C)C(=O)N[C@H](C)C(=O)N[C@H](CCC(=O)O)C(=O)N[C@H](Cc1ccccc1)C(=O)N[C@@H](C(=O)N[C@H](CCC(N)=O)C(=O)N[C@H](C)C(=O)N[C@@H](C(=O)N[C@H](C)C(=O)N[C@H](C)C(=O)N[C@@H](C(=O)N[C@H](CC(C)C)C(=O)N[C@H](C)C(=O)N[C@H](CCSC)C(=O)N[C@H](CC(C)C)C(=O)N[C@H](CCCNC(=N)N)C(=O)N[C@H](CC(N)=O)C(=O)N[C@H](CC(N)=O)C(=O)N[C@H](CCC(N)=O)C(=O)N[C@H](Cc1ccccc1)C(=O)N[C@H](CCC(=O)O)C(=O)N[C@H](Cc1ccccc1)C(=O)N[C@H](C)C(=O)NCC(=O)N[C@@H](C(=O)N[C@H](CCC(=O)O)C(=O)N[C@H](Cc1c[nH]cn1)C(N)=O)C(C)C)C(C)C)C(C)C)[C@H](C)CC [D-GLP-2] (Ac-[dI][dK][dA][dQ][dW][dL][dA][dA][dE][dF][dI][dQ][dA][dV][dA][dA][dV][dL][dA][dM][dL][dR][dN][dN][dQ][dF][dE][dF][dA]G[dV][dE][dH]-NH2)
pEC50 (hGLP-2R): 5.85 | times less potent (weaker EC50) than native L-GLP-2 (hGLP-2R; ratio of cAMP EC50 to that of GLP-2): 35 times

Molecule: CC[C@@H](C)[C@@H](NC(C)=O)C(=O)N[C@H](CCCCN)C(=O)N[C@H](C)C(=O)N[C@H](CCC(N)=O)C(=O)N[C@H](Cc1c[nH]c2ccccc12)C(=O)N[C@H](CC(C)C)C(=O)N[C@H](C)C(=O)N[C@H](C)C(=O)N[C@H](CCC(=O)O)C(=O)N[C@H](Cc1ccccc1)C(=O)N[C@@H](C(=O)N[C@H](CCC(N)=O)C(=O)N[C@H](C)C(=O)N[C@@H](C(=O)N[C@H](C)C(=O)N[C@H](C)C(=O)N[C@@H](C(=O)N[C@H](CC(C)C)C(=O)N[C@H](C)C(=O)N[C@H](CCSC)C(=O)N[C@H](CC(C)C)C(=O)N[C@H](CCCNC(=N)N)C(=O)N[C@H](CC(N)=O)C(=O)N[C@H](CC(N)=O)C(=O)N[C@H](CCC(N)=O)C(=O)N[C@H](Cc1ccccc1)C(=O)N[C@H](CCC(=O)O)C(=O)N[C@H](Cc1ccccc1)C(=O)N[C@H](C)C(=O)NCC(=O)N[C@@H](C(=O)N[C@H](C)C(=O)N[C@H](Cc1c[nH]cn1)C(=O)NN)C(C)C)C(C)C)C(C)C)[C@H](C)CC [D-GLP-2 E33A hydrazide] (Ac-[dI][dK][dA][dQ][dW][dL][dA][dA][dE][dF][dI][dQ][dA][dV][dA][dA][dV][dL][dA][dM][dL][dR][dN][dN][dQ][dF][dE][dF][dA]G[dV][dA][dH]-NHNH2)
pEC50 (hGLP-2R): 6.65 | improvement of GLP-2R activation compared to D-GLP-2 (hGLP-2R; ratio of cAMP EC50 values, compared to D-GLP-2): 6.26 fold | GFP relative expression level, relative to L-GLP-2-treated cells [3]: 1.08 ± 0.14

peptide remaining after incubation with DPP-IV (DPP-IV): remained intact | peptide remaining after proteinase K exposure, 2 h (proteinase K): almost complete loss
Molecule: CC[C@H](C)[C@H](NC(=O)[C@H](Cc1ccccc1)NC(=O)[C@H](CC(=O)O)NC(=O)[C@H](CCCNC(=N)N)NC(=O)[C@H](C)NC(=O)[C@H](C)NC(=O)[C@H](CC(C)C)NC(=O)[C@H](CC(N)=O)NC(=O)[C@H](CC(=O)O)NC(=O)[C@H](CC(C)C)NC(=O)[C@@H](NC(=O)[C@@H](NC(=O)[C@H](CC(N)=O)NC(=O)[C@H](CCSC)NC(=O)[C@H](CCC(=O)O)NC(=O)[C@H](CC(=O)O)NC(=O)[C@H](CO)NC(=O)[C@H](Cc1ccccc1)NC(=O)[C@H](CO)NC(=O)CNC(=O)[C@H](CC(=O)O)NC(=O)CNC(=O)[C@@H](N)Cc1c[nH]cn1)[C@@H](C)O)[C@@H](C)CC)C(=O)N[C@@H](CC(N)=O)C(=O)N[C@@H](Cc1c[nH]c2ccccc12)C(=O)N[C@@H](CC(C)C)C(=O)N[C@H](C(=O)N[C@@H](CCC(N)=O)C(=O)N[C@H](C(=O)N[C@@H](CCCCN)C(=O)N[C@H](C(=O)N[C@H](C(=O)N[C@@H](CC(=O)O)C(=O)O)[C@@H](C)O)[C@@H](C)CC)[C@@H](C)O)[C@@H](C)CC [L-GLP-2-2G]
